Measured values as given in paper PMC7827406, “Structure–Activity Relationship (SAR) Study of Spautin-1 to Entail the Discovery of Novel NEK4 Inhibitors” (International Journal of Molecular Sciences, 2021).
Where two headings read alike, the source gives them in different places.

Legend:
Experiment in all cases: biochemical
Parameters in all cases: Eurofins KinaseProfiler full panel at Km ATP, residual kinase activity (%) relative to DMSO
EphA2(h) = EphA2(h) (Homo sapiens, UniProt P29317)
How it was run: (§1)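 Compounds screened at 10 µM in radiometric kinase activity assays at Km ATP, reported as remaining kinase activity (%). A KINOMEscan competition-binding screen at 10 µM measured DNA-tagged kinase retained on immobilized active-site ligand by qPCR.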

MINK(h) = molecular target: T1, MINK(h) (Homo sapiens, UniProt Q8N4C8)
T1 construct: gene MINK1
T1 sequence (Q8N4C8 whole entry): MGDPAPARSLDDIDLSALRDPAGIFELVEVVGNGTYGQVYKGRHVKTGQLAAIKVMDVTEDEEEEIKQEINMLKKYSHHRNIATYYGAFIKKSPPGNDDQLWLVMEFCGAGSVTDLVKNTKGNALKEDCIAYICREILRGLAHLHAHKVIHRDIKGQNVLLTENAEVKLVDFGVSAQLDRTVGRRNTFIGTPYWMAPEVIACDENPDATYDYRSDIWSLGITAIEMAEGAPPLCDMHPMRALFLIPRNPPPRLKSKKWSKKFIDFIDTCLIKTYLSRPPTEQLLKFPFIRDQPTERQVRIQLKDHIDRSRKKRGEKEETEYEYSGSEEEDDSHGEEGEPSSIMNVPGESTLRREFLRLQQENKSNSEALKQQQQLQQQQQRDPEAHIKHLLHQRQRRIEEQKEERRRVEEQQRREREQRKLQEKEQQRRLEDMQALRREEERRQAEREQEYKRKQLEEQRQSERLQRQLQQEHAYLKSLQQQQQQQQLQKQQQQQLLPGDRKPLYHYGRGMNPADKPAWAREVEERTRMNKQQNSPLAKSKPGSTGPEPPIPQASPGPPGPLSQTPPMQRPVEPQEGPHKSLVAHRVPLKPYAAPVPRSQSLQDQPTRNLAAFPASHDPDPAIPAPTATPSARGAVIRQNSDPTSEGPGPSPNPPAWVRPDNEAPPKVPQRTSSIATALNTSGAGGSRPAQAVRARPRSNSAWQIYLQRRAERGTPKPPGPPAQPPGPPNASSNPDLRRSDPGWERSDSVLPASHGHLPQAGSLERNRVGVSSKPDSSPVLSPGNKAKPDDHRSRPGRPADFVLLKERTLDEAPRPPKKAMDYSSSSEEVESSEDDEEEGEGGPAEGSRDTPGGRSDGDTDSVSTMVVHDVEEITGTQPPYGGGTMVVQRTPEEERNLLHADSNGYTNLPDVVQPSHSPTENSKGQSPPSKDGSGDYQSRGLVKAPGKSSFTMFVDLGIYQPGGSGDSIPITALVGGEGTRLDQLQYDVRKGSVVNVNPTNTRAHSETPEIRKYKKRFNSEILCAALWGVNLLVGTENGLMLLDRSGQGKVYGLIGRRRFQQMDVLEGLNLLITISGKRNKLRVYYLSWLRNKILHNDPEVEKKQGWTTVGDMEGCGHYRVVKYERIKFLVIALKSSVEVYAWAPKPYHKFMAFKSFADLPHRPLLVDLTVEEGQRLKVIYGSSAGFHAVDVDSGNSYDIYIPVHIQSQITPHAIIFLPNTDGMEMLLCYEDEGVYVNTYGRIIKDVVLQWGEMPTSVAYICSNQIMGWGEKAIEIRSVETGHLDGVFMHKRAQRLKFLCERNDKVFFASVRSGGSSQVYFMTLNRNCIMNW
How it was run: as §1

NEK2(h) = molecular target: T2, NEK2(h) (Homo sapiens, UniProt P51955)
T2 sequence (P51955 1-445): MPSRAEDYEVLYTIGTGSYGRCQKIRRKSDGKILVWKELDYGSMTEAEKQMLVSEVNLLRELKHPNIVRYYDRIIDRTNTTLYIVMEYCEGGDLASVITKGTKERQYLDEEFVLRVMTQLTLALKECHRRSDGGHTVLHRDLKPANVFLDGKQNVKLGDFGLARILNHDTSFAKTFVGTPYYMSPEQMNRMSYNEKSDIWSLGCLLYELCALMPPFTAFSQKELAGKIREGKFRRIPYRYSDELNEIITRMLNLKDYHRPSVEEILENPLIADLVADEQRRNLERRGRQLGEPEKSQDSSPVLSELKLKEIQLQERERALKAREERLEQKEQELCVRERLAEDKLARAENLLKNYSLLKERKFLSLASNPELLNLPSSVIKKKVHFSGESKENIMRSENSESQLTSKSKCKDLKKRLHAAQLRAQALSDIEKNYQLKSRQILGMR
How it was run: as §1

OSR1(h) = molecular target: T3, OSR1(h) (Homo sapiens, UniProt O95747)
T3 construct: gene OXSR1
T3 sequence (O95747 whole entry): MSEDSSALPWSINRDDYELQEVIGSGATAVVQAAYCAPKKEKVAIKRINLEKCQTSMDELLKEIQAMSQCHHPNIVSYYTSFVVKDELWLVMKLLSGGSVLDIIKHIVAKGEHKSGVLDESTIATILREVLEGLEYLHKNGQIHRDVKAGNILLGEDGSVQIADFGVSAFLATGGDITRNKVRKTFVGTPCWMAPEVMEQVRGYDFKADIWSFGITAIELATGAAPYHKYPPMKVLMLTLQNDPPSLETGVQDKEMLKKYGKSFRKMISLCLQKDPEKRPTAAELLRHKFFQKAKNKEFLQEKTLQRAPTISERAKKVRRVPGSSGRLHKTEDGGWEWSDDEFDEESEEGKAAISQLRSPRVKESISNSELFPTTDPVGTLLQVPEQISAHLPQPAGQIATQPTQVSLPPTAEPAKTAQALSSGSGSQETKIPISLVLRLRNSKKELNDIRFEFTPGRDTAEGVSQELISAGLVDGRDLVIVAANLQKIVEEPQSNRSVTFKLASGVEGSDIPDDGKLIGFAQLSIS
How it was run: as §1

PDGFRα(V561D)(h) = molecular target: T4, PDGFRα(V561D)(h) (Homo sapiens, UniProt P16234, V561D)
T4 construct: gene PDGFRA
T4 sequence (P16234 whole entry V561D): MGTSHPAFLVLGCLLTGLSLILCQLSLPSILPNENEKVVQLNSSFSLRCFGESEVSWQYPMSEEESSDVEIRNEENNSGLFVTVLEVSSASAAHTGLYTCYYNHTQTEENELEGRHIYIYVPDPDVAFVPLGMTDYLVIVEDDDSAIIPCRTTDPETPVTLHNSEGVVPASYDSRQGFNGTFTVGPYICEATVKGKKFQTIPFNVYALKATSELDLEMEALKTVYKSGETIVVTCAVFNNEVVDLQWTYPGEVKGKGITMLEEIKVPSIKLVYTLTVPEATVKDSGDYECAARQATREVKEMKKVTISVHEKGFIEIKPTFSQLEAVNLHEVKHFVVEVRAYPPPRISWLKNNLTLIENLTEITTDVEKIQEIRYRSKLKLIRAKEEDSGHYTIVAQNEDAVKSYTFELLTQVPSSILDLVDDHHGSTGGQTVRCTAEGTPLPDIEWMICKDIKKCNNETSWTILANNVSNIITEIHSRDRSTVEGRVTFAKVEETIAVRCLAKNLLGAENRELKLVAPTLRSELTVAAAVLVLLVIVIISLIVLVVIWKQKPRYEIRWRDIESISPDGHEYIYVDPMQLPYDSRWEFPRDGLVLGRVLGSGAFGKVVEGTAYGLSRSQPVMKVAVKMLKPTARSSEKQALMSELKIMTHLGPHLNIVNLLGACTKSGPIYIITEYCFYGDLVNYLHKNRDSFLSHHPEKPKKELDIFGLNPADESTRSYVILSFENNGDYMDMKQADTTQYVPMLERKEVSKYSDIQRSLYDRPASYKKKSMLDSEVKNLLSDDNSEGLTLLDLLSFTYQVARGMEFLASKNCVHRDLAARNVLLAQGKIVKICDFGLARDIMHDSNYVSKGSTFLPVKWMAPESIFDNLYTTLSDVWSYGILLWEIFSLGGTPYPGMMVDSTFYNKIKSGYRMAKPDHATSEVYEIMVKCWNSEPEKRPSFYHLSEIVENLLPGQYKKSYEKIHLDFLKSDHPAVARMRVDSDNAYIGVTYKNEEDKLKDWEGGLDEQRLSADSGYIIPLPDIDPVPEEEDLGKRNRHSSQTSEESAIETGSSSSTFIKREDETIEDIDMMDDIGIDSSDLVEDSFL
How it was run: as §1

TAO2(h) = molecular target: T5, TAO2(h) (Homo sapiens, UniProt Q9UL54)
T5 construct: gene TAOK2
T5 sequence (Q9UL54 1-1235): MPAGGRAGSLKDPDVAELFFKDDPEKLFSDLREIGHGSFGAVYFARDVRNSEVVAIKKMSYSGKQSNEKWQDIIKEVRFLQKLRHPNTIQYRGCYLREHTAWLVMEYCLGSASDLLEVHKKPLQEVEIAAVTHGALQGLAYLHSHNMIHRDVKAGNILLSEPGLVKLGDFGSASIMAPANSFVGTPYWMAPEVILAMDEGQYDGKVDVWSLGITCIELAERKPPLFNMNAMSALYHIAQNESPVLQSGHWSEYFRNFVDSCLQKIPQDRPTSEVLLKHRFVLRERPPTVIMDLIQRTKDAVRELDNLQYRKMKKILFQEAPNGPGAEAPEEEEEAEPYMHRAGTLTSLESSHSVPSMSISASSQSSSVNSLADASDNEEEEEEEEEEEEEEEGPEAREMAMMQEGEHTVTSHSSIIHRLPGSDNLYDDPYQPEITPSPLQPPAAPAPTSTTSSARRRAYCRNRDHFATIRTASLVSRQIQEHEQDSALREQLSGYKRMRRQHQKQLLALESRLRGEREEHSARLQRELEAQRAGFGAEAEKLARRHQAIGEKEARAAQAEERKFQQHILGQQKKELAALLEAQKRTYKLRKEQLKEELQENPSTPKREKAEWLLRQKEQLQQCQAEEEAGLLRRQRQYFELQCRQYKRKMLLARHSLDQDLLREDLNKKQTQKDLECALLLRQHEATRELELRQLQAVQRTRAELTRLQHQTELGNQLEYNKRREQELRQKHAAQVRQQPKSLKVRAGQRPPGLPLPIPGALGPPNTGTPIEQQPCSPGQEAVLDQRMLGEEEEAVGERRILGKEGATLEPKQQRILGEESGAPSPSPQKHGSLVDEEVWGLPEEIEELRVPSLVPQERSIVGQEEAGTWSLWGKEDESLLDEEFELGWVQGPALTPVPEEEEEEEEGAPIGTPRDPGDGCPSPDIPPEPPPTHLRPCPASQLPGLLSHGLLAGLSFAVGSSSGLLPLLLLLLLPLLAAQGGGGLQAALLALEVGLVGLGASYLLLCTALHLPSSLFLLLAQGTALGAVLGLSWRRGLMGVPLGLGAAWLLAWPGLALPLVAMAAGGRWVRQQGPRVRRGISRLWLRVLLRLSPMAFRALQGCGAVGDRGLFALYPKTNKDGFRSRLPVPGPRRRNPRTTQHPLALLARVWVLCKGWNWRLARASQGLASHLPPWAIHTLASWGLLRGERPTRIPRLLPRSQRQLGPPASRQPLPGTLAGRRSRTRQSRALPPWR
How it was run: as §1

[1] = read-out: Residual activity (%) Spautin-1 5aa
[2] = read-out: Residual activity (%) 5as
[3] = read-out: Residual activity (%) 5at
[4] = read-out: Residual activity (%) 5ay

EphA2(h), sequence (P29317 whole entry): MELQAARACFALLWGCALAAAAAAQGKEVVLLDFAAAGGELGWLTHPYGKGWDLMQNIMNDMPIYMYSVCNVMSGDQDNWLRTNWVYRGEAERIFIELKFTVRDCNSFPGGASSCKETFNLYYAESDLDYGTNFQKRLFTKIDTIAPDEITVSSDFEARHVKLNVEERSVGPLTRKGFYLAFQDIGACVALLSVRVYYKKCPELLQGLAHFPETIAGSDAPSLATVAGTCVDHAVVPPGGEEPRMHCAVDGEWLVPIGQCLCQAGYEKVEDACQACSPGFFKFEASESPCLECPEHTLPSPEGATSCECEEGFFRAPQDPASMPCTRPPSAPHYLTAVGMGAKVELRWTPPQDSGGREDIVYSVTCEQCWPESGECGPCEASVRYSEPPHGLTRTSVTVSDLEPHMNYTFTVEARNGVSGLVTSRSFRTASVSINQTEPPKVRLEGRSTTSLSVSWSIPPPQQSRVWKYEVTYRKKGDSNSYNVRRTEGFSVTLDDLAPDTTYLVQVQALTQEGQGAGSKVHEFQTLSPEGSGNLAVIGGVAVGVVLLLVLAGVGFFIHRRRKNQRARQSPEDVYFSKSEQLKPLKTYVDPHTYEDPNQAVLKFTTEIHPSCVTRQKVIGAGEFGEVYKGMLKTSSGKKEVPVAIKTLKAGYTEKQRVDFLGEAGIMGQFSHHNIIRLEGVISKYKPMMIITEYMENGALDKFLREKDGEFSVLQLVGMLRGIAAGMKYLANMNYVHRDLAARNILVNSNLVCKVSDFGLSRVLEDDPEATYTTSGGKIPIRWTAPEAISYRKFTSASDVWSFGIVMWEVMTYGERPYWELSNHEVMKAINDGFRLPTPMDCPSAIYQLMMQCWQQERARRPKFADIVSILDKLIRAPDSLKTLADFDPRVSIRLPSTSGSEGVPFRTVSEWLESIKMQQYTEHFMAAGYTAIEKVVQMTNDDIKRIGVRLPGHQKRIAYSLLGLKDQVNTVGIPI

Fc1ccc(CNc2ncnc3ccc(F)cc23)cc1 [5aa, 6-Fluoro-N-(4-fluorobenzyl)-4-Quinazolinamine]
remaining activity at 10 µM (EphA2(h); [1]): 73% | remaining activity at 10 µM (MINK(h); [1]): 86% | remaining activity at 10 µM (NEK2(h); [1]): 91% | remaining activity at 10 µM (OSR1(h); [1]): 100% | remaining activity at 10 µM (PDGFRα(V561D)(h); [1]): 86% | remaining activity at 10 µM (TAO2(h); [1]): 110%

Fc1ccc(CCNc2ncnc3ccc(F)cc23)cc1 [5as, 6-Fluoro-N-[2-(4-Fluorophenyl)Ethyl]-4-Quinazolinamine]
remaining activity at 10 µM (EphA2(h); [2]): 90% | remaining activity at 10 µM (MINK(h); [2]): 88% | remaining activity at 10 µM (NEK2(h); [2]): 88% | remaining activity at 10 µM (OSR1(h); [2]): 95% | remaining activity at 10 µM (PDGFRα(V561D)(h); [2]): 92% | remaining activity at 10 µM (TAO2(h); [2]): 109%

Fc1ccc2ncnc(NCCc3ccc(Cl)cc3)c2c1 [5at, N-[2-(4-Chlorophenyl)Ethyl]-6-Fluoro-4-Quinazolinamine]
remaining activity at 10 µM (EphA2(h); [3]): 99% | remaining activity at 10 µM (MINK(h); [3]): 89% | remaining activity at 10 µM (NEK2(h); [3]): 95% | remaining activity at 10 µM (OSR1(h); [3]): 108% | remaining activity at 10 µM (PDGFRα(V561D)(h); [3]): 90% | remaining activity at 10 µM (TAO2(h); [3]): 107%

COc1ccc2ncnc(Nc3cccc(F)c3)c2c1 [5ay, N-(3-Fluorophenyl)-6-Methoxy-4-Quinazolinamine]
remaining activity at 10 µM (EphA2(h); [4]): 75% | remaining activity at 10 µM (MINK(h); [4]): 67% | remaining activity at 10 µM (NEK2(h); [4]): 92% | remaining activity at 10 µM (OSR1(h); [4]): 107% | remaining activity at 10 µM (PDGFRα(V561D)(h); [4]): 98% | remaining activity at 10 µM (TAO2(h); [4]): 112%
